Data as given in US11236068B2, “Fused ring compounds” (Genentech, Inc., priority 2018, dated 2022).

Columns and labels:
[1] = Whole blood stability assay; type: in vitro ADME; settings: fresh whole blood, drug final concentration 1 μM, 37° C., 180 minutes
Protocol: Whole Blood Stability Assay
A whole blood stability assay was performed using fresh blood with a drug final concentration of 1 μM. The drug-blood mixtures were incubated at 37° C. for 180 minutes.

K-Ras G12C [2] = molecular target: T1, K-Ras G12C (Homo sapiens (Human), UniProt P01116, G12C); test: Western blot assay for in cell alkylation of K-Ras G12C (HCC1171 cells); type: cell-based; settings: 18 hours at 37° C., 7 point dose response
Target sequence in this assay (P01116 other isoform, or with tags, fused parts or gaps G12C): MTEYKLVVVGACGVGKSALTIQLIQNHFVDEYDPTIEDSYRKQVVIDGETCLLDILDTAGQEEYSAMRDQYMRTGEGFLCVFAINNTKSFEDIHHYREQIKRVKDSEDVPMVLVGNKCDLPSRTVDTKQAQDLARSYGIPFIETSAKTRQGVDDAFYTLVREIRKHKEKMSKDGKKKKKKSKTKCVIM

K-Ras G12C [3] = molecular target: T1, K-Ras G12C; test: K-Ras G12C, SOS1, Raf RBD HTRF assay for inhibition of GTP exchange; type: biochemical; settings: 18 hours incubation with K-Ras G12C at room temperature, SOS1-mediated GTP exchange
Protocol: K-Ras G12C, SOS1, Raf RBD Homogeneous Time Resolved Fluorescence (HTRF) Assay for Inhibition of GTP Exchange
After 18 hours at room temperature, the SOS1 GTP exchange factor (1.67 nM during exchange, 1.25 nM final) was added to initiate nucleotide exchange to GTP (200 μM during exchange, 150 µM final). The level of GTP exchange was assessed by addition of a Ras binding domain derived from C-Raf and the HTRF detection antibodies Tb-anti-FLAG and D2-anti-his (Cis-Bio) at 50 nM, 1 nM and 12.5 nM, respectively. After 2 hours, the ratio of 665 nm to 615 nm emission with 320 nm excitation was measured on an Envision plate reader (Perkin Elmer).
The final reaction volume was 20l in a ProxiPlate-384F Plus (Perkin Elmer), in buffer containing 20 mM HEPES, 150 mM NaCl, 1 mM MgCl2, 0.1% BSA, 0.03% Tween-20 and 1 mM DTT. […] HTRF data are presented below in Table 3.
Target sequence in this assay (P01116 other isoform, or with tags, fused parts or gaps G12C): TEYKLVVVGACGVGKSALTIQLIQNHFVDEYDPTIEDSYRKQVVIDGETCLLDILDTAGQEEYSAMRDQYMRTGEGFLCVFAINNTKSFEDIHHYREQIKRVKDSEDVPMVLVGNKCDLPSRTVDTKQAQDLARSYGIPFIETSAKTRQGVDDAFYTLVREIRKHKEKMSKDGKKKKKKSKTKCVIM

Row | half-life at 1 μM [1] [h] | EC50 (K-Ras G12C [2]) [µM] | IC50 (K-Ras G12C [3]) [µM] | SMILES
1 | 2.67 |  |  | C=CC(=O)N1CCN(c2ncnc3c(F)c(-c4nc(N)cc(C)c4C(F)(F)F)c(Cl)cc23)[C@@H](C)C1 [Example 19, 1-((3S)-4-(7-(6-amino-4-methyl-3-(trifluoromethyl)pyridin-2-yl)-6-chloro-8-fluoroquinazolin-4-yl)-3-methylpiperazin-1-yl)prop-2-en-1-one]
2 |  | 7.8 | 0.54 | C=CC(=O)N1CCN(c2ncnc3cc(-c4nc(N)ccc4C(F)(F)F)c(S(C)(=O)=O)cc23)CC1 [Example 28, 1-[4-[7-[6-amino-3-(trifluoromethyl)-2-pyridyl]-6-methylsulfonyl-quinazolin-4-yl]piperazin-1-yl]prop-2-en-1-one]
3 |  | 0.14 | 0.032 | C=CC(=O)N1CCN(c2ncnc3cc(-c4nc(N)cc5cccc(F)c45)c(Cl)cc23)CC1 [Example 48, 1-[4-[7-(3-amino-8-fluoroisoquinoline-1-yl)-6-chloroquinazolin-4-yl]piperazin-1-yl]prop-2-en-1-one]
4 | 2.67 | 0.002 |  | C=CC(=O)N1CCN(c2nc(OC[C@@H]3CCCN3C)nc3cc(-c4nc(N)cc(C)c4C(F)(F)F)c(Cl)cc23)[C@@H](C)C1 [Example 61, 1-((S)-4-(7-(6-amino-4-methyl-3-(trifluoromethyl)pyridin-2-yl)-6-chloro-2-(((S)-1-methylpyrrolidin-2-yl)methoxy)quinazolin-4-yl)-3-methylpiperazin-1-yl)prop-2-en-1-one]
5 | 0.617 | 0.0076 |  | Cc1cc(N)nc(-c2cc3nc(OC[C@@H]4CCCN4C)nc(N4CCN(C(=O)/C=C/C(F)F)C[C@@H]4C)c3cc2Cl)c1C(F)(F)F [Example 65, (E)-1-((S)-4-(7-(6-amino-4-methyl-3-(trifluoromethyl)pyridin-2-yl)-6-chloro-2-(((S)-1-methylpyrrolidin-2-yl)methoxy)quinazolin-4-yl)-3-methylpiperazin-1-yl)-4,4-difluorobut-2-en-1-one]
6 | > 9 | 0.001 |  | C=CC(=O)N1CCN(c2nc(OC[C@@H]3C[C@@H](F)CN3C)nc3c(F)c(-c4nc(N)cc(C)c4C(F)(F)F)c(Cl)cc23)[C@@H](C)C1 [Example 69, 1-[(3S)-4-[7-[6-amino-4-methyl-3-(trifluoromethyl)-2-pyridyl]-6-chloro-8-fluoro-2-[[(2S,4R)-4-fluoro-1-methyl-pyrrolidin-2-yl]methoxy]quinazolin-4-yl]-3-methyl-piperazin-1-yl]prop-2-en-1-one]
7 | 1.02 | 0.019 |  | C=CC(=O)N1CCN(c2nc(OC[C@@H]3CCCN3C)nc3cc(-c4nc(N)ccc4C(F)(F)F)c(Cl)cc23)CC1 [Example 70, (S)-1-(4-(7-(6-amino-3-(trifluoromethyl)pyridin-2-yl)-6-chloro-2-((1-methylpyrrolidin-2-yl)methoxy)quinazolin-4-yl)piperazin-1-yl)prop-2-en-1-one]
8 | 1.52 | 0.018 |  | C=CC(=O)N1CCN(c2nc(OC[C@@H]3C[C@@H](OCC)CN3C)nc3cc(-c4nc(N)ccc4C(F)(F)F)c(Cl)cc23)CC1 [Example 71, 1-(4-(7-(6-amino-3-(trifluoromethyl)pyridin-2-yl)-6-chloro-2-(((2S,4R)-4-ethoxy-1-methylpyrrolidin-2-yl)methoxy)quinazolin-4-yl)piperazin-1-yl)prop-2-en-1-one]
9 |  | 0.04 |  | C=CC(=O)N1CCN(c2nc(OC[C@@H]3CCCN3CCOC)nc3cc(-c4nc(N)ccc4C(F)(F)F)c(Cl)cc23)CC1 [Example 91, 1-[4-[7-[6-amino-3-(trifluoromethyl)-2-pyridyl]-6-chloro-2-[[(2S)-1-(2-methoxyethyl)pyrrolidin-2-yl]methoxy]quinazolin-4-yl]piperazin-1-yl]prop-2-en-1-one]
10 | 3 | 0.018 |  | C=CC(=O)N1CCN(c2nc(OC[C@@H]3C[C@@H](OC(F)F)CN3C)nc3cc(-c4nc(N)ccc4C(F)(F)F)c(Cl)cc23)CC1 [Example 92, 1-[4-[7-[6-amino-3-(trifluoromethyl)-2-pyridyl]-6-chloro-2-[[(2S,4R)-4-(difluoromethoxy)-1-methyl-pyrrolidin-2-yl]methoxy]quinazolin-4-yl]piperazin-1-yl]prop-2-en-1-one]
11 |  | 0.13 |  | C=CC(=O)N1CCN(c2nc(OC[C@@H]3CCCN3)nc3c(F)c(-c4nc(N)cc(C)c4C(F)(F)F)c(Cl)cc23)[C@@H](C)C1 [Example 93, 1-((3S)-4-(7-(6-amino-4-methyl-3-(trifluoromethyl)pyridin-2-yl)-6-chloro-8-fluoro-2-(((S)-pyrrolidin-2-yl)methoxy)quinazolin-4-yl)-3-methylpiperazin-1-yl)prop-2-en-1-one]
12 |  | 0.022 |  | C=CC(=O)N1CCN(c2nc(OCC3(C)C[C@@H](F)CN3C)nc3cc(-c4nc(N)ccc4C(F)(F)F)c(Cl)cc23)CC1 (stereo partly drawn) [Example 96, 1-[4-[7-[6-amino-3-(trifluoromethyl)-2-pyridyl]-6-chloro-2-[[(4R)-4-fluoro-1,2-dimethyl-pyrrolidin-2-yl]methoxy]quinazolin-4-yl]piperazin-1-yl]prop-2-en-1-one]
